# Experimental data as given in patent publication US10676473B2, “Solid state forms of fused heteroaromatic pyrrolidinones” (TAKEDA PHARMACEUTICAL COMPANY LIMITED, priority 2014, dated 2020).
# Entries after “also recorded” stand apart in the source; their conditions may differ. Where a name gives a salt, the structure may show the parent alone. Read-outs that look alike come from different tables or passages of the source.
# Tests used:
# [1] = Gravimetric vapour sorption (GVS) isotherm; assay type: physicochemical; details: for hygroscopicity by GVS / GVS behaviour (dehydration, crystallisation, transformation): 25° C.; for hygroscopicity by GVS: subjected to humidity (various RH levels); for GVS behaviour (dehydration, crystallisation, transformation): RH as stated in the value; for change in form / XRPD pattern post GVS analysis: XRPD after the isotherm; for GVS mass / total weight change: between 0-90% RH; for water exchanged (GVS): between 0 and 90% RH
# Description: Sorption isotherms were obtained using a SMS DVS Intrinsic moisture sorption analyser, controlled by DVS Intrinsic Control software v1.0.0.30. The sample temperature was maintained at 25° C. by the instrument controls. The humidity was controlled by mixing streams of dry and wet nitrogen, with a total flow rate of 200 ml/min The relative humidity was measured by a calibrated Rotronic probe (dynamic range of 1.0-100% RH), located near the sample. The weight change, (mass relaxation) of the sample as a function of % RH was constantly monitored by the microbalance (accuracy ±0.005 mg).
# Typically 5-20 mg of sample was placed in a tared mesh stainless steel basket under ambient conditions. The sample was loaded and unloaded at 40% RH and 25° C. (typical room conditions). A moisture sorption isotherm was performed as outlined below (2 scans giving 1 complete cycle). The standard isotherm was performed at 25° C. at 10% RH intervals over a 0-90% RH range. Data analysis was undertaken in Microsoft Excel using DVS Analysis Suite v6.0.
# The sample was recovered after completion of the isotherm and re-analyzed by XRPD.
# [2] = Storage at elevated temperature/humidity, form checked by XRPD; assay type: physicochemical; details: for stability on storage: duration not given; for stability to moisture / humidity: exposure to humidity
# [3] = Safety and dose limiting toxicity in the dose escalation study in patients; assay type: in vivo, human
# Description: (§1) Patients aged ≥18 yrs with advanced solid tumors/lymphoma whose disease failed standard therapies received oral Compound 1 citrate (Form 1) daily (QD, 60-120 mg) in 28 day cycles. To determine the maximum tolerated dose, dose escalation proceeded via modified titration design based on dose limiting toxicity or any drug-related grade ≥2 adverse event (AE) during cycle 1. Blood samples for plasma pharmacokinetic assessments were collected pre-dose and post-dose on day 1 and day 15 of cycle 1. Response assessments per RECIST for solid tumors and per IWG criteria for lymphoma were performed between day 22 and day 29 (pre-dose) of cycle 2, 4 and 6, and every 3 cycles thereafter.
# [4] = Plasma pharmacokinetics in patients, oral once daily dosing; details: human, in vivo
# Description: as §1
# [5] = system: advanced solid tumors/lymphoma; assay: Response assessment (RECIST / IWG criteria) in patients; assay type: in vivo, human
# Description: as §1
# [6] = Solubility of solid forms; assay type: physicochemical
# [7] = DLBCL, 60 mg QD, after 2 cycles
smiles,measurement,setting,value
"Cn1cc(-c2nc(N[C@@H]3CCCC[C@@H]3N)c(F)c3c2C(=O)NC3)cn1 [Compound 1 citrate, 6-(((1R,2S)-2-aminocyclohexyl)amino)-7-fluoro-4-(1-methyl-1H-pyrazol-4-yl)-1H-pyrrolo[3,4-c]pyridin-3(2H)-one citrate]",hygroscopicity by GVS,[1]; citrate,non hygroscopic
"Cn1cc(-c2nc(N[C@@H]3CCCC[C@@H]3N)c(F)c3c2C(=O)NC3)cn1 [Compound 1 free base, 6-((1R,2S)-2-aminocyclohexylamino)-7-fluoro-4-(1-methyl-1H-pyrazol-4-yl)-1H-pyrrolo[3,4-c]pyridine-3(2H)-one]",stability on storage,[2]; 40° C./75% RH,"the methanol solvate desolvated, however, the anhydrous form was found to be stable"
same,"GVS behaviour (dehydration, crystallisation, transformation)",[1],"the methanol solvate desolvated, however, the anhydrous form was found to be stable"
Cn1cc(-c2nc(N[C@@H]3CCCC[C@@H]3N)c(F)c3c2C(=O)NC3)cn1 [Form 1],patients died on study (deaths not related to study drug),[3]; 60 mg QD,3
same,patients died on study (deaths not related to study drug),[3]; 120 mg QD,1 patient
same,patients discontinued due to adverse events,"[3]; human, in vivo",3 patients
same,patients died on study (deaths not related to study drug),"[3]; overall, 15 patients",4 patients
same,mean accumulation,[4]; 15 days,2.7 fold
same,coefficient of variation for dl 5 AUCtau (variability in steady-state exposures),"[4]; po, 120 mg",47%
same,Tmax,"[4]; plasma, 11 patients at 60 and 120 mg oral QD, read-out: median Tmax",2 h
same,DLBCL patients showing signs of response,"[5]; 60 mg QD, after 2 cycles, 5 response-evaluable patients (4 DLBCL)",2 patients
same,patients with partial response,[5]; [7],1
same,tumor reduction in 1 patient,[5]; [7],25%
same,patients achieving partial response,"[5]; DLBCL, 80 mg, after 1 cycle, post data cut-off",1 patient
same,change in form after storage,[2]; 25° C./97% RH for 1 week,No change in form was observed
same,change in form after storage,[2]; 40° C./75% RH for 1 week,No change in form was observed
same,hygroscopicity by GVS,[1],not hygroscopic
same,GVS variation,[1]; RH range not printed at the place,less than 0.3 % w/w
same,change in form / XRPD pattern post GVS analysis,[1],No change in form was observed
same,GVS mass / total weight change,[1],less than 0.3%
Cn1cc(-c2nc(N[C@@H]3CCCC[C@@H]3N)c(F)c3c2C(=O)NC3)cn1 [Form 2],"GVS behaviour (dehydration, crystallisation, transformation)",[1],adsorbs moisture in the range of 40-80% relative humidity (RH) and undergoes a crystallization event above 80% RH; also recorded: undergoes a crystallisation event above 80% RH
same,change in form / XRPD pattern post GVS analysis,[1],transformation to Form 1
same,GVS weight loss accompanying crystallization,[1]; between 80% and 90% RH,7%
same,moisture adsorbed (GVS),[1]; range of 40-80% RH,9 % w/w
"Cn1cc(-c2nc(N[C@@H]3CCCC[C@@H]3N)c(F)c3c2C(=O)NC3)cn1 [Form 3, 6-(((1R,2S)-2-aminocyclohexyl)amino)-7-fluoro-4-(1-methyl-1H-pyrazol-4-yl)-1H-pyrrolo[3,4-c]pyridin-3(2H)-one hydrochloride dihydrate]",change in form after storage,[2]; 25° C./97% RH for 1 week,No change in form was observed
same,change in form after storage,[2]; 40° C./75% RH for 1 week,No change in form was observed
same,"GVS behaviour (dehydration, crystallisation, transformation)",[1]; hydrochloride dihydrate,subject to dehydration below 20% RH
same,change in form / XRPD pattern post GVS analysis,[1]; hydrochloride dihydrate,No change in form was observed
Cn1cc(-c2nc(N[C@@H]3CCCC[C@@H]3N)c(F)c3c2C(=O)NC3)cn1 [Form 4],change in form during storage,[2]; 25° C./97% RH for 10 days,did not change form
same,change in form during storage,[2]; 40° C./75% RH for 10 days,did not change form
same,change in form during storage,[2]; 40° C./97% RH for 10 days,did not change form
same,stability to moisture / humidity,[2],stable to moisture
same,hygroscopicity by GVS,[1],not hygroscopic; also recorded: non-hygroscopic
Cn1cc(-c2nc(N[C@@H]3CCCC[C@@H]3N)c(F)c3c2C(=O)NC3)cn1 [Form 5],solubility,"[6]; medium not given, read-out: solubility",11000 µg/mL
same,change in form during storage,[2]; 40° C./97% RH for 10 days,did not change form
same,stability to moisture / humidity,[2],stable to moisture
same,hygroscopicity by GVS,[1],not hygroscopic
same,change in form / XRPD pattern post GVS analysis,[1],did not change form
Cn1cc(-c2nc(N[C@@H]3CCCC[C@@H]3N)c(F)c3c2C(=O)NC3)cn1 [Form 6],stability to moisture / humidity,[2],"seems to undergo a phase transformation, possibly leading to Form 9"
same,"GVS behaviour (dehydration, crystallisation, transformation)",[1],adsorbs moisture and undergoes a crystallisation event above 70% RH
same,GVS water uptake,[1]; between 40-60% RH,5 % w/w
same,GVS weight loss,[1]; between 70-90% RH,3%
Cn1cc(-c2nc(N[C@@H]3CCCC[C@@H]3N)c(F)c3c2C(=O)NC3)cn1 [Form 7],stability to moisture / humidity,[2],unstable to humidity and converted back to a hydrated form (Form 9)
same,GVS water uptake,[1]; RH range not given,10.5%
Cn1cc(-c2nc(N[C@@H]3CCCC[C@@H]3N)c(F)c3c2C(=O)NC3)cn1 [Form 8],"GVS behaviour (dehydration, crystallisation, transformation)",[1],minimal weight variation between 10 and 90% RH
Cn1cc(-c2nc(N[C@@H]3CCCC[C@@H]3N)c(F)c3c2C(=O)NC3)cn1 [Form 12],solubility,"[6]; water, pH 9.41, pH 9.41, read-out: aqueous solubility",580 µg/mL
same,stability on storage,[2]; 25° C./97% RH,not stable
same,stability on storage,[2]; 40° C./75% RH,No obvious stability issues were noted
same,"GVS behaviour (dehydration, crystallisation, transformation)",[1],Hysterisis was observed between 40 and 60% RH; also recorded: possibility of the transformation of Form 12 to a hydrated form
same,GVS mass / total weight change,[1],about 6%
Cn1cc(-c2nc(N[C@@H]3CCCC[C@@H]3N)c(F)c3c2C(=O)NC3)cn1 [Form 13],solubility,"[6]; water, pH 9.05, pH 9.05, read-out: aqueous solubility",190 µg/mL
same,stability on storage,[2]; 25° C./97% RH,stable
same,stability on storage,[2]; 40° C./75% RH,stable
same,hygroscopicity by GVS,[1],not hygroscopic
same,change in form / XRPD pattern post GVS analysis,[1],no transformation to hydrates was observed
same,GVS mass / total weight change,[1],less than 0.6%
Cn1cc(-c2nc(N[C@@H]3CCCC[C@@H]3N)c(F)c3c2C(=O)NC3)cn1 [Form 14],stability on storage,[2]; 25° C./97% RH,stable
same,stability on storage,[2]; 40° C./75% RH,stable
same,change in form / XRPD pattern post GVS analysis,[1],no change in the XRPD pattern was noted
same,GVS mass / total weight change,[1],1.5%
same,water exchanged (GVS),[1],0.25 eq.
Cn1cc(-c2nc(N[C@@H]3CCCC[C@@H]3N)c(F)c3c2C(=O)NC3)cn1 [Form 15],aqueous solubility,[6]; pH 9.41,710 µg/mL
same,stability on storage,[2]; 25° C./97% RH,stable
same,stability on storage,[2]; 40° C./75% RH,stable
same,change in form / XRPD pattern post GVS analysis,[1],no change in the XRPD pattern was noted
same,GVS mass / total weight change,[1],2.0%
same,water exchanged (GVS),[1],0.4 eq.
Cn1cc(-c2nc(N[C@@H]3CCCC[C@@H]3N)c(F)c3c2C(=O)NC3)cn1 [Form 16],solubility,"[6]; water, pH 9.27, pH 9.27, read-out: aqueous solubility",130 µg/mL
same,stability on storage,[2]; 25° C./97% RH,No changes in the XRPD pattern were observed
same,stability on storage,[2]; 40° C./75% RH,No changes in the XRPD pattern were observed
same,"GVS behaviour (dehydration, crystallisation, transformation)",[1],dehydration below 30% RH; also recorded: stable at and above 30% RH at 25 °C and desolvated below 30% RH
Cn1cc(-c2nc(N[C@@H]3CCCC[C@@H]3N)c(F)c3c2C(=O)NC3)cn1 [Form 17],solubility,"[6]; water, pH 9.33, pH 9.33, read-out: aqueous solubility",180 µg/mL
same,stability on storage,[2]; 25° C./97% RH,stable
same,stability on storage,[2]; 40° C./75% RH,stable
same,change in form / XRPD pattern post GVS analysis,[1],no change in the XRPD pattern was noted
same,water exchanged (GVS),[1],0.3 eq.
